Reference: patent US7462605B2, “Phosphoramidate compounds and methods of use” (Celmed Oncology (USA), Inc., priority 2002, dated 2008)
Read-outs that look alike come from different tables or passages of the source.

Columns and labels:
[1] = tested on: CCD18co normal colon epithelial cells; assay: alamarBlue growth inhibition, CCD18co; type: cell-based, human; details: Homo sapiens, CCD-18Co; Normal Cells: CCD1800 (Colon); alamarBlue, 120 hours
Experimental: (§1) Growth Inhibition Studies. Cells growing exponentially were transferred to 384-well flat bottom tissue culture plates. All cell types were plated at a density of 500 cells per well in 25 μL of complete medium (RPMI 1640+10% fetal bovine serum+antibiotics/antimycotics). After 24 hours (day 0), 25 μL of complete medium containing the experimental compounds over the dose range of 10^ñ3 to 10^ñ10 M were added in triplicate. […] 5 μL of the redox indicator, alamarBlue, was added to each well (10% v/v). After 4 hours incubation at 37° C., fluorescence was monitored at 535 nm excitation and 595 nm emission.
(§2) Concentration vs. relative fluorescence units (RFU) were plotted, and sigmoid curves were fit using the Hill equation.

NHA (Brain) normal cells = assay: alamarBlue growth inhibition, NHA; type: cell-based, human; details: Homo sapiens, 120 hours
Experimental: as §1, §2

NHLF (Lung) normal cells = assay: alamarBlue growth inhibition, NHLF; type: cell-based, human; details: Homo sapiens, 120 hours
Experimental: as §1, §2

[2] = tested on: PC3 (Prostate) tumor cells; assay: alamarBlue growth inhibition, PC3; type: cell-based, human; details: Homo sapiens, 120 hours
Experimental: as §1, §2

MRC9 (Lung) normal cells = assay: alamarBlue growth inhibition, MRC9; type: cell-based, human; details: Homo sapiens, 120 hours
Experimental: as §1, §2

[3] = H630-10 5-FU resistant colon carcinoma xenografts in athymic mice; details: female, CD-1 (nu/nu) athymic, mouse, in vivo, ip
Experimental: Tumor measurements began on the first day of treatment (Day 1).
Following cell expansion ex-vivo H630-10 were injected subcutaneously (S.Q.) at 1.5×10^7 cells/tumor in the mid-back region of 4-6 week old, female, CD-1 (nu/nu), athymic mice (Charles River Laboratories, Wilmington, Mass.). Tumor volumes, calculated as the product of length, width, and depth, were monitored twice weekly by serial micrometer measurements by a single observer. Six animals were randomly assigned to each treatment group and statistical tests were performed (single-factor ANOVA) to assure uniformity in starting tumor volumes between treatment and control groups at the beginning of the experiment. […] To assure accurate dosing, drug doses were individualized based upon animal weights determined immediately prior to each injection. […] Differences in day 25 xenograft volumes between groups were analyzed by single-factor ANOVA of the log transformed tumor volume data.

[4] = tested on: MCIxc (Brain) tumor cells; assay: alamarBlue growth inhibition, MCIxc; type: cell-based, human; details: Homo sapiens, MC-IXC, 120 hours
Experimental: as §1, §2

[5] = tested on: COLO320 (Colon) tumor cells; assay: alamarBlue growth inhibition, COLO320; type: cell-based, human; details: Homo sapiens, COLO 320, 120 hours
Experimental: as §1, §2

NHDF (Skin) normal cells = assay: alamarBlue growth inhibition, NHDF; type: cell-based, human; details: Homo sapiens, 120 hours
Experimental: as §1, §2

A431 (Skin) tumor cells = assay: alamarBlue growth inhibition, A431; type: cell-based, human; details: Homo sapiens, A-431, 120 hours
Experimental: as §1, §2

[6] = tested on: HEPG2 (Liver) tumor cells; assay: alamarBlue growth inhibition, HEPG2; type: cell-based, human; details: Homo sapiens, 120 hours
Experimental: as §1, §2

[7] = tested on: SKCO1 (Colon) tumor cells; assay: alamarBlue growth inhibition, SKCO1; type: cell-based, human; details: Homo sapiens, SK-CO-1, 120 hours
Experimental: as §1, §2

[8] = tested on: SKOV3 (Ovary) tumor cells; assay: alamarBlue growth inhibition, SKOV3; type: cell-based, human; details: Homo sapiens, SK-OV-3, 120 hours
Experimental: as §1, §2

[9] = tested on: COLO205 (Colon) tumor cells; assay: alamarBlue growth inhibition, COLO205; type: cell-based, human; details: Homo sapiens, COLO 205, 120 hours
Experimental: as §1, §2

[10] = tested on: DET551 (Skin) normal cells; assay: alamarBlue growth inhibition, DET551; type: cell-based, human; details: Homo sapiens, 120 hours
Experimental: as §1, §2

H527 (Skin) normal cells = assay: alamarBlue growth inhibition, H527; type: cell-based, human; details: Homo sapiens, 120 hours
Experimental: as §1, §2

[11] = tested on: NCI H520 (Lung) tumor cells; assay: alamarBlue growth inhibition, NCI H520; type: cell-based, human; details: Homo sapiens, 120 hours
Experimental: as §1, §2

[12] = tested on: SW527 (Breast) tumor cells; assay: alamarBlue growth inhibition, SW527; type: cell-based, human; details: Homo sapiens, 120 hours
Experimental: as §1, §2

SOAS2 (Bone) tumor cells = assay: alamarBlue growth inhibition, SOAS2; type: cell-based, human; details: Homo sapiens, 120 hours
Experimental: as §1, §2

[13] = tested on: NHOST (Bone) normal cells; assay: alamarBlue growth inhibition, NHOST; type: cell-based, human; details: Homo sapiens, 120 hours
Experimental: as §1, §2

[14] = tested on: SKHEP1 (Liver) tumor cells; assay: alamarBlue growth inhibition, SKHEP1; type: cell-based, human; details: Homo sapiens, SK-HEP1, 120 hours
Experimental: as §1, §2

[15] = tested on: SW620 (Colon) tumor cells; assay: alamarBlue growth inhibition, SW620; type: cell-based, human; details: Homo sapiens, SW-620, 120 hours
Experimental: as §1, §2

SKLU1 (Lung) tumor cells = assay: alamarBlue growth inhibition, SKLU1; type: cell-based, human; details: Homo sapiens, SK-LU-1, 120 hours
Experimental: as §1, §2

[16] = tested on: PANC1 (Pancreas) tumor cells; assay: alamarBlue growth inhibition, PANC1; type: cell-based, human; details: Homo sapiens, PANC-1, 120 hours
Experimental: as §1, §2

[17] = tested on: H630R10 5FU-resistant colon tumor cells; assay: alamarBlue growth inhibition, H630R10; type: cell-based, human; details: Homo sapiens; Tumor Cells: H630R10 (Colon); alamarBlue, 120 hours; read-out: IC50
Experimental: as §1, §2

[18] = tested on: normal and tumor cell types; assay: cells; details: Homo sapiens
Experimental: Growth Inhibition Studies. Cells growing exponentially were transferred to 384-well flat bottom tissue culture plates. All cell types were plated at a density of 500 cells per well in 25 μL of complete medium (RPMI 1640+10% fetal bovine serum+antibiotics/antimycotics). After 24 hours (day 0), 25 μL of complete medium containing the experimental compounds over the dose range of 10^ñ3 to 10^ñ10 M were added in triplicate. Drug exposure time was 120 hours (day 5), after which growth inhibition was assayed. 5 μL of the redox indicator, alamarBlue, was added to each well (10% v/v). After 4 hours incubation at 37° C., fluorescence was monitored at 535 nm excitation and 595 nm emission.
as §2
Assays were carried out as described in Methods, above. Therapeutic index is calculated as the ratio of the average IC50 for normal cells to the average IC50 for tumor cells. All assays were done at least three times.

[19] = tested on: MDAMB361 (Breast) tumor cells; assay: alamarBlue growth inhibition, MDAMB361; type: cell-based, human; details: Homo sapiens, MDA-MB-361, 120 hours
Experimental: as §1, §2

HCTC (Colon) tumor cells = assay: alamarBlue growth inhibition, HCTC; type: cell-based, human; details: Homo sapiens, 120 hours
Experimental: as §1, §2

[20] = tested on: NHEPF (Liver) normal cells; assay: alamarBlue growth inhibition, NHEPF; type: cell-based, human; details: Homo sapiens, 120 hours
Experimental: as §1, §2

W138 (Lung) normal cells = assay: alamarBlue growth inhibition, W138; type: cell-based, human; details: Homo sapiens, 120 hours
Experimental: as §1, §2

[21] = tested on: HT1080 (Colon) tumor cells; assay: alamarBlue growth inhibition, HT1080; type: cell-based, human; details: Homo sapiens, HT-1080, 120 hours
Experimental: as §1, §2

[22] = tested on: MDAMB468 (Breast) tumor cells; assay: alamarBlue growth inhibition, MDAMB468; type: cell-based, human; details: Homo sapiens, MDA-MB-468, 120 hours
Experimental: as §1, §2

[23] = tested on: NPRSC (Prostate) normal cells; assay: alamarBlue growth inhibition, NPRSC; type: cell-based, human; details: Homo sapiens, 120 hours
Experimental: as §1, §2

MCF7TDX cells = assay: 384-well interaction screening assay (alamarBlue) with NB1011, MCF7TDX; type: cell-based, human; details: drug combined with NB1011, MCF7TDX, 384-well alamarBlue, 5-day
Experimental: Cell lines: Normal human colon epithelial cells (CCD18co) and skin fibroblasts (Det55 1) were purchased from ATCC (Rockville,Md.). MCF7TDX, human breast carcinoma cells resistant to 2 μM Tomudex were obtained from Dr. Patrick Johnston, Queens University, Belfast. […] The MCF7TDX and the H630R10 cell lines have been previously described in Drake, J. C. et al. (1996) and Copur, S. et al. (1995) respectively.
Culture Conditions: All cells were cultured under standard conditions of 37° C., 95% humidified air, 5% CO2 in RPMI 1640 culture medium containing 10% fetal calf serum (Life Technologies) and penicillin/streptomycin/fungizone. […] The medium was renewed or the cells were passaged about every three days to maintain optimal growth conditions. […]
Cytotoxicity Studies: 384-well interaction screening assay. […] Following a 5-day incubation, the redox indicator dye, alamarBlue (AccuMed International, Westlake, Ohio) was added to each well at a 10% v/v ratio, and fluorescence was monitored at 535 excitation, 595 emission. Cytotoxic effect levels and drug interactions were assessed by the combination index method (Chou, T. C. and Talalay, P. (1984) and Bible, K. C. et al. (1997)), described briefly below. […] Sigmoid curves were fit according to the Hill inhibitory Emax model, and IC50 calculated as the average of three or more separate determinations. […]

TSH/HT1080 cells = assay: alamarBlue cytotoxicity, HT1080 expressing high GFP-TS; type: cell-based, human; details: second line printed TSL/HT1080, TS Level 702%
Experimental: (§3) Cell lines and transfection. HT1080 cells were grown in PRM11640 medium supplemented with 10% fetal calf serum, and transfected with GFP-TS expression vector. 48 hours after, transfection cells were tripsinized and replated in culture medium containing 750 μg/ml G418. After selection with G418 for two weeks, surviving cells were sorted based upon fluorescence expression. One clone with higher fluorescence expression (named as TSH/HT1080) and one clone with lower fluorescence expression (named as TSL/HT1080) were selected and expanded into cells lines. The stable HT1080 cells transfected with pEGFP-C3 were used as control.
(§4) Construction of GFP-TS expression vector. […] The cDNA was cloned into HindIII and KpnI sites of mammalian expression vector pEGFP-C3 (Clontech Laboratories. Inc., Palo Alto, Calif.), in-frame with GFP sequence. The cDNA insert was confirmed by DNA sequencing.
(§5) Growth Inhibition Studies. Cells growing exponentially were transferred to 384-well flat bottom tissue culture plates. All cell types were plated at a density of 500 cells per well in 25 μL of complete medium (RPMI 1640+10% fetal bovine serum+antibiotics/antimycotics). […] After 4 hours incubation at 37° C., fluorescence was monitored at 535 nm excitation and 595 nm emission.
as §2

[24] = tested on: CCD18co normal colon epithelial cells; assay: Thymidine rescue, alamarBlue cytotoxicity; type: cell-based, human
Excerpt: An additional approach was taken to understanding whether NB1011 might interfere with cell growth primarily by inactivating TS. This approach is based upon thymidine rescue of TS-blocked cells. […] For this reason, they survive only by scavenger mechanisms. One of the important scavenger mechanisms is utilization of extracellular thymidine. Thymidine incorporated by target cells can be converted to dTMP, usually by thymidine kinase, and thus continue DNA synthesis. Other pathways for use of exogenous thymidine have also been described If an important mechanism for NB1011 activity is via inhibition of endogenous TS, then the cytotoxicity should be relieved when thymidine is added to the cell culture media. For this experiment, a number of tumor cell lines were screened for their sensitivity to Tomudex and 5FdUrd, and ability to be rescued from these agents via thymidine supplementation. […] Experiments were carried out as described by (Patterson, et al. (1998)) with or without 10 μM thymidine, except that the alamarBlue assay was employed to determine cytotoxicity.

C/HT1080 cells = assay: alamarBlue cytotoxicity, control-transfected HT1080; type: cell-based, human; details: C/HT1080, TS Level 100%
Experimental: as §3, §4, §5, §2

TSL/HT1080 cells = assay: alamarBlue cytotoxicity, HT1080 expressing low GFP-TS; type: cell-based, human; details: TSL/HT1080, TS Level 409%
Experimental: as §3, §4, §5, §2

O=c1[nH]cc(F)c(=O)[nH]1 [5FU, 5-fluorouracil]
IC50 [1]: 2000 nM
IC50 (NHA (Brain) normal cells): 900 nM
IC50 (NHLF (Lung) normal cells): 900 nM
IC50 [2]: 900 nM
IC50 (MRC9 (Lung) normal cells): 1100 nM
MTD at 5 days [3]: 15 mg/kg
IC50 [4]: 1200 nM
IC50 [5]: 1500 nM
IC50 (NHDF (Skin) normal cells): 800 nM
IC50 (A431 (Skin) tumor cells): 200 nM
IC50 [6]: 22800 nM
IC50 [7]: 1400 nM
IC50 [8]: 3000 nM
IC50 [9]: 1300 nM
IC50 [10]: 800 nM
IC50 (H527 (Skin) normal cells): 1600 nM
IC50 [11]: 600 nM
IC50 [12]: 4300 nM
IC50 (SOAS2 (Bone) tumor cells): 1400 nM
IC50 [13]: 4700 nM
IC50 [14]: 1700 nM
IC50 [15]: 4600 nM
IC50 (SKLU1 (Lung) tumor cells): 7900 nM
IC50 [16]: 1900 nM
IC50 [17]: 41600 nM
IC50 ([18]; read-out: IC50 (μM), Average, average of the 11 normal cell types): 1.6 µM
IC50 ([18]; read-out: IC50 (μM), Average, average of the 21 tumor cell lines): 5.3 µM
IC50 [19]: 5000 nM
IC50 (HCTC (Colon) tumor cells): 2800 nM
IC50 [20]: 1700 nM
IC50 (W138 (Lung) normal cells): 1000 nM
IC50 [21]: 800 nM
IC50 [22]: 4400 nM
IC50 [23]: 1700 nM

N.N.[Cl][Pt][Cl] [Cisplatin]
Combination Index ± s.e.m. (MCF7TDX cells): 1.51 ± 0.35

O=c1[nH]c(=O)n([C@H]2C[C@H](O)[C@@H](CO)O2)cc1F [FUDR]
IC50 (TSH/HT1080 cells): 3100 nM
IC50 ([24]; in the presence of 10 μM thymidine): > 5900 nM
IC50 ([24]; without thymidine): < 10 nM
IC50 (C/HT1080 cells): < 100 nM
IC50 (TSL/HT1080 cells): 2200 nM

CCc1c2c(nc3ccc(OC(=O)N4CCC(N5CCCCC5)CC4)cc13)-c1cc3c(c(=O)n1C2)COC(=O)[C@]3(O)CC [Irinotecan]
Combination Index ± s.e.m. (MCF7TDX cells): 1.36 ± 0.38
